The record followed here is ChEMBL document CHEMBL5108065 (J Med Chem, 2022).

Data set [1] addresses Voltage-gated inwardly rectifying potassium channel KCNH2 (Homo sapiens, UniProt Q12809). As to the kind of experiment: Inhibition of hERG cardiac ion channel by patch clamp assay. The class given is toxicity. In general terms: The hERG channel carries a current that helps repolarise heart muscle cells.
Data set [2] is described as follows: Lipophilicity, log D of the compound. The class given is physicochemical. The following applies: octanol/water.
A short description of data set [3]: Drug metabolism in rat hepatocytes assessed as (S)-6-(2-chloro-3-((6-cyclopropylpyridin-3-yl)amino)phenyl)-2-imino-6-methyl-3-((2S,4S)-2-methyltetrahydro-2H-pyran-4-yl)tetrahydropyrimidin-4(1H)-one metabolite formation. The class given is ADME, cell-based, Hepatocyte.
The nature of data set [4]: Drug metabolism in human hepatocytes assessed as (S)-6-(2-chloro-3-((6-cyclopropylpyridin-3-yl)amino)phenyl)-2-imino-6-methyl-3-((2S,4S)-2-methyltetrahydro-2H-pyran-4-yl)tetrahydropyrimidin-4(1H)-one metabolite formation. In kind it is ADME, cell-based, Hepatocyte.
A short description of data set [5]: Drug metabolism in Cynomolgus monkey hepatocytes assessed as (S)-6-(2-chloro-3-((6-cyclopropylpyridin-3-yl)amino)phenyl)-2-imino-6-methyltetrahydropyrimidin-4(1H)-one metabolite formation. The class given is ADME, cell-based, Macaca fascicularis, Hepatocyte.
Data set [6] can be described thus: Drug metabolism in human hepatocytes assessed as (S)-6-(2-chloro-3-((6-cyclopropylpyridin-3-yl)amino)phenyl)-2-imino-6-methyltetrahydropyrimidin-4(1H)-one metabolite formation. The class given is ADME, cell-based, Hepatocyte.
Data set [7] has as its system Plasmodium falciparum. As to the kind of experiment: Antimalarial activity against Plasmodium falciparum Dd2048 harbouring pfpi4k mutated loci assessed as inhibition of parasite growth pretreated for 48 hrs followed by [3H]-hypoxanthine addition measured after 24 hrs by scintillation counting method. In kind it is functional, organism-based.
The test system of data set [8] is Plasmodium falciparum. As to the kind of experiment: Antimalarial activity against Plasmodium falciparum infected NSG mouse model assessed as accumulation of circulating mature schizonts measured after 2 cycles of drug exposure at 60 mg/kg, po bid administered daily for 3 days. The class given is functional, organism-based. The following applies: time 3.0 day.
Data set [9] is described as follows: Toxicity in Han Wistar rat assessed as changes in ophthalmology at 250 to 1000 mg/kg, po administered every other day for 7 days. The following applies: in vivo, 168 h, dose 250-1000 mg/kg, time 7 day. In kind it is organism-based.
Data set [10] can be described thus: Volume of distribution at steady state in Cynomolgus monkey blood at 1 mg/kg, iv measured at 2 to 72 hrs by LC-MS/MS analysis. The following applies: whole blood, time 2-72 hrs, read-out: Vdss. In kind it is ADME, organism-based, Macaca fascicularis.
The nature of data set [11]: Toxicity in Han Wistar rat assessed as structural changes in retina at 250 to 1000 mg/kg, po administered every other day for 7 days. In kind it is organism-based. The following applies: in vivo, 168 h, dose 250-1000 mg/kg, time 7 day.
Data set [12] is described as follows: AUC in Cynomolgus monkey blood at 1 mg/kg, iv measured at 2 to 72 hrs by LC-MS/MS analysis. Set-up: dose 1 mg/kg, time 2-72 hrs, route iv. The following applies: whole blood. In kind it is ADME, organism-based, Macaca fascicularis.

SMILES strings stand for the structures. The source made the active and inactive calls. The calls are words filed in the database; no cut-off is given here.

Voltage-gated inwardly rectifying potassium channel KCNH2, sequence (Q12809 whole entry): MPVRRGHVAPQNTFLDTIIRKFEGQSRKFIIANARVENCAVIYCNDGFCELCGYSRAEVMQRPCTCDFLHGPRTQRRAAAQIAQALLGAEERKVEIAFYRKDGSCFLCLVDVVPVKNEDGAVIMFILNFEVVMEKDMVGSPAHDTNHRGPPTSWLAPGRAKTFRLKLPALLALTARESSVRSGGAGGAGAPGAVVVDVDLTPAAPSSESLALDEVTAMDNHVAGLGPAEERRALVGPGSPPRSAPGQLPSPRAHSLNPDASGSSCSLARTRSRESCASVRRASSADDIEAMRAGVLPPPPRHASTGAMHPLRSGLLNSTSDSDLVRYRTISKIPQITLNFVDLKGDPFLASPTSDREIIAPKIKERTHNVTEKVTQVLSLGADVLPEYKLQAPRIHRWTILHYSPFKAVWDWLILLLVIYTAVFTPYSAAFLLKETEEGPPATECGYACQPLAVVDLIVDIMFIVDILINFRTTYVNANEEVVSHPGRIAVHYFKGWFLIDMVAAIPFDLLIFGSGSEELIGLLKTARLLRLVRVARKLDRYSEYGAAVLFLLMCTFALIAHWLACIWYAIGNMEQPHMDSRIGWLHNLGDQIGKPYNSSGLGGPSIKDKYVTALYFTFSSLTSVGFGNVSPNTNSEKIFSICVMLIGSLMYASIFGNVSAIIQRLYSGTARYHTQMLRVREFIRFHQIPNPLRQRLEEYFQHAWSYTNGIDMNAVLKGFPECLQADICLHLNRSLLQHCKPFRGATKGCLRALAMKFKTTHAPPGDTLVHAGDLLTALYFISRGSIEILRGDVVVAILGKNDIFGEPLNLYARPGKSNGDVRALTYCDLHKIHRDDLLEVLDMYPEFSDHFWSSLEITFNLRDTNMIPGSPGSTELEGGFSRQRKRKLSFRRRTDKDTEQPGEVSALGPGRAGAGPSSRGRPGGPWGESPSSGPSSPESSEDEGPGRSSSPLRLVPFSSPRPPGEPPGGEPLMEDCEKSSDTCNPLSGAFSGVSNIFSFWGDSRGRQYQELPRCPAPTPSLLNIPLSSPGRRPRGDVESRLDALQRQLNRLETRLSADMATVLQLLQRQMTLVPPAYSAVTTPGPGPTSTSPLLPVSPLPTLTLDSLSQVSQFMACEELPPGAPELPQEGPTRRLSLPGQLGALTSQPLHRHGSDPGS

A word on the IC50: it is the concentration that gives 50% inhibition. In general, logD refers to the decadic logarithm of the distribution of all forms, ionised or not, between an organic phase and buffer at a given pH. As for `C[C@H]1C[C@@H](N2C(=N)N[C@](C)(c3cccc(Nc4ccc(C5CC5)nc4)c3Cl)CC2=O)CCO1`, inhibition in data set [1] was half-maximal at 14 µM (IC50). This compound also returned a logD in data set [2] of 2.5. In addition, the Drug metabolism entry in data set [3], in [4], in data set [5] and in [6] was “Metabolite_Detected” each time.

One may read the AUC as the area under the concentration-time curve, a measure of exposure. As for `C[C@H]1C[C@@H](N2C(=N)N[C@](C)(c3cccc(NC(=O)c4cccc(C#N)c4)c3Cl)CC2=O)CCO1`, the concentration for half-maximal inhibition (IC50) in [7] was 0.02 µM. Further, in data set [8], the outcome was Active. Further, the Activity result in data set [9] and in data set [11] was “Non-Toxic” throughout. For the same compound, the Vd in data set [10] turned out to be 3.07 L/kg. Also, the AUC in data set [12] turned out to be 1.91 µM·h.
